pKi: −log10 of the molar value. Like-named read-outs stand apart in the source and are kept apart here.
Legend:
α1A-adrenoceptor = biological target: T1, α1A-adrenoceptor (Rattus norvegicus, UniProt P43140); experiment: Receptor binding assay, [3H]prazosin, rat submaxillary membranes; details: for Ki: rat submaxillary membranes, 0.5 nM [3H]prazosin, read-out: RBA (Ki nM) α1A
T1 construct: from tissue; host or cells: rat submaxillary gland membranes
T1 sequence (P43140 1-466): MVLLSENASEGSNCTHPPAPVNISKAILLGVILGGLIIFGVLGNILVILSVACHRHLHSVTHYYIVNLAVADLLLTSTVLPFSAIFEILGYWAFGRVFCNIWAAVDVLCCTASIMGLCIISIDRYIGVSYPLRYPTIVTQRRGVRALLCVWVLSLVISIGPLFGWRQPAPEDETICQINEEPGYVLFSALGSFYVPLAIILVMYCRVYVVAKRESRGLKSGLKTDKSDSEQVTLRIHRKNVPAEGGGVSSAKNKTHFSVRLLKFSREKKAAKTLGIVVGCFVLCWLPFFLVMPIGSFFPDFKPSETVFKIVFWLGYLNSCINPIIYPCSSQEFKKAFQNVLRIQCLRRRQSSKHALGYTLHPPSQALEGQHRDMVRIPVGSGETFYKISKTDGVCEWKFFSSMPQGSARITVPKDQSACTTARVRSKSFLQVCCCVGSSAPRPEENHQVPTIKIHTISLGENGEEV
Experimental: (§1) Receptor binding assays, (RBA's) were performed for native α1-adrenoceptors. Rat submaxillary and rat liver membrane preparations were used to assess the affinity for α1A and α1B subtypes, respectively. Aliquots of membrane protein ([…]) were incubated in a final volume of […] assay buffer (50 mM Tris, 0.5 mM EDTA at pH 7.4) with 0.5 nM [^3H] prazosin for 60 mins at 28 ° C. Reaction was stopped by rapid filtration on Millipore filters. Filters were dried and bound radioactivity counted. Non-specific binding was determined in the presence of 0.3 mM prazosin.

α1B-adrenoceptor = biological target: T2, α1B-adrenoceptor (Rattus norvegicus, UniProt P15823); experiment: Receptor binding assay, [3H]prazosin, rat liver membranes; details: for Ki: rat liver membranes, 0.5 nM [3H]prazosin, read-out: RBA (Ki nM) α1B
T2 construct: from tissue; host or cells: rat liver membranes
T2 sequence (P15823 1-515): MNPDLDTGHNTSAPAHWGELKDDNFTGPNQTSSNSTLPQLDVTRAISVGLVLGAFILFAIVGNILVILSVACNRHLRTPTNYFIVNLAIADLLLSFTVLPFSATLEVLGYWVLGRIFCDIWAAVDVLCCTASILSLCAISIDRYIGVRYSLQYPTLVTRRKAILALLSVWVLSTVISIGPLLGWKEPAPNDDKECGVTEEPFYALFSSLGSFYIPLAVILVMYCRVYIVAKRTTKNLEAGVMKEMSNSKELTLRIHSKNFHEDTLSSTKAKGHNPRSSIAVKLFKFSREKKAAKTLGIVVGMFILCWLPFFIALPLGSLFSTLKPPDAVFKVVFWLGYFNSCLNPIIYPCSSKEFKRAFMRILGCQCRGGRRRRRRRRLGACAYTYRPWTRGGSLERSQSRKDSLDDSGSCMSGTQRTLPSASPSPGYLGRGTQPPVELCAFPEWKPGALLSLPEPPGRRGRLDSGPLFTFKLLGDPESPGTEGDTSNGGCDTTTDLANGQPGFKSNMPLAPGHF
Experimental: as §1

[1] = biological target: T3, α1A-adrenoceptor (prostate) (Rattus norvegicus, UniProt P43140); experiment: In vitro functional assay, phenylephrine-induced contraction of isolated prostate; assay type: cell-based
T3 construct: Aorta, prostate and spleen tissues were isolated from urethane anaesthetized (1.5 gm/kg) male wistar rats; from tissue; host or cells: isolated prostate of male Wistar rats
T3 sequence (P43140 1-466): T1 sequence (P43140 1-466)
From the text: (§2) In order to study selectivity of action of the present compounds towards different α-adrenoceptor subtypes, the ability of these compounds to antagonize α1-adrenoceptor agonist induced contractile response of aorta (α1D), prostate (α1A) and spleen (α1B) was studied. Aorta, prostate and spleen tissues were isolated from urethane anaesthetized (1.5 gm/kg) male wistar rats. Isolated tissues were mounted in organ bath containing Krebs Henseleit buffer of the following composition (mM): NaCl 118; KCl 4.7; CaCl2 2.5; MgSO4·H2O 1.2; NaHCO3 25; KH2PO4 1.2; glucose 11.5. Buffer was maintained at 37° C. and aerated with a mixture of 95% O2 and 5% CO2. A resting tension of 2 g (aorta) or 1 g (spleen and prostate) was applied to tissues. Contractile response was monitored using a force displacement transducer and recorded on chart recorders. Tissues were allowed to equilibrate for 2 hours. At the end of equilibration period, concentration response curves to norepinephrine (aorta) and phenylephrine (spleen and prostate) were obtained in the absence and presence of the tested compound (at concentrations of 0.1, 1 and 10 μM). Antagonist affinity was calculated and expressed as PKB values in Table 1.

[2] = biological target: T4, α1B-adrenoceptor (spleen) (Rattus norvegicus, UniProt P15823); experiment: In vitro functional assay, phenylephrine-induced contraction of isolated spleen; assay type: cell-based
T4 construct: Aorta, prostate and spleen tissues were isolated from urethane anaesthetized (1.5 gm/kg) male wistar rats; from tissue; host or cells: isolated spleen of male Wistar rats
T4 sequence (P15823 1-515): T2 sequence (P15823 1-515)
From the text: as §2

α1D-adrenoceptor (aorta) = biological target: T5, α1D-adrenoceptor (aorta) (Rattus norvegicus, UniProt P23944); experiment: In vitro functional assay, norepinephrine-induced contraction of isolated aorta; assay type: cell-based
T5 construct: Aorta, prostate and spleen tissues were isolated from urethane anaesthetized (1.5 gm/kg) male wistar rats; from tissue; host or cells: isolated aorta of male Wistar rats
T5 sequence (P23944 1-561): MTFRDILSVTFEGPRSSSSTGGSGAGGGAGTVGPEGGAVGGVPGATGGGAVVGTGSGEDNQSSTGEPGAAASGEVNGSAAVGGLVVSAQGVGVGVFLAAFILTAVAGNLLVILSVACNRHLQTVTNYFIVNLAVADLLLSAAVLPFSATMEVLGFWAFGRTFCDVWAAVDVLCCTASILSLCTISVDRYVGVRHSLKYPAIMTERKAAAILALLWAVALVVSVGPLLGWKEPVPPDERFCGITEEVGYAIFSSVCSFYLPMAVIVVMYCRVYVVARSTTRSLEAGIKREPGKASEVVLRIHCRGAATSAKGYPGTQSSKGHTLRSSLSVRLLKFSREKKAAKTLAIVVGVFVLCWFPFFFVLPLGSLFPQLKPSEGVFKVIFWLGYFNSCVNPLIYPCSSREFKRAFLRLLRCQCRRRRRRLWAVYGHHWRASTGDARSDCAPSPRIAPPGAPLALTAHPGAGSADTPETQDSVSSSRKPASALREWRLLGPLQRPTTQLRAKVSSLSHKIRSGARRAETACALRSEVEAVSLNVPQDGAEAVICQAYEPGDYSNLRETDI
From the text: as §2

[3] = rat aorta, norepinephrine, read-out: In Vitro Functional Assay (pKB) α1D (converted)
[4] = rat prostate, phenylephrine, read-out: In Vitro Functional Assay (pKB) α1A (converted)
[5] = rat spleen, phenylephrine, read-out: In Vitro Functional Assay (pKB) α1B (converted)

SMILES | Ki (α1A-adrenoceptor) | Ki (α1B-adrenoceptor) | Kb [1] | Kb [2] | Kb (α1D-adrenoceptor (aorta); [3]) | Kb [1, 4] | Kb [2, 5] | Kb (α1D-adrenoceptor (aorta)) | pKi (α1A-adrenoceptor) | pKi (α1B-adrenoceptor)
O=C1CCC(=O)N1CCCN1CCN(c2ccc(F)cc2)CC1 [Compound 1, 1-[4-(4-Fluorophenyl)piperazin-1-yl]-3-(2,5-dioxopyrrolidin-1-yl)propane] | > 2500 nM | 1000 nM | 79.4 nM | 100 nM | 158 nM |  |  |  |  | 
O=C1CCC(=O)N1CCCN1CCN(c2cccc(C(F)(F)F)c2)CC1 [Compound 3, 1-[4-(3-Trifluoromethylphenyl)piperazin-1-yl]-3-(2,5-dioxopyrrolidin-1-yl)propane] | 1500 nM | 1000 nM |  | 63.1 nM | 10000 nM |  |  |  |  | 
O=C1CCC(=O)N1CCCN1CCN(c2ccccn2)CC1 [Compound 4, 1-[4-(2-Pyridyl)piperazin-1-yl]-3-(2,5-dioxopyrrolidin-1-yl)propane] | 1660 nM | 2100 nM |  |  | 2510 nM |  |  |  |  | 
O=C1CCC(=O)N1CCCN1CCN(c2cccc(Cl)c2)CC1 [Compound 5, 1-[4-(3-Chlorophenyl)piperazin-1-yl]-3-(2,5-dioxopyrrolidin-1-yl)propane] | 106 nM | 175 nM |  |  |  | 5010 nM | 5010 nM | 100 nM |  | 
O=C1CCC(=O)N1CCCN1CCN(c2ncccn2)CC1 [Compound 6, 1-[4-(2-Pyrimidyl)piperazin-1-yl]-3-(2,5-dioxopyrrolidin-1-yl)propane] | 1140 nM | > 2500 nM |  |  | 316 nM | 20000 nM | 5010 nM |  |  | 
Cc1ccc(N2CCN(CCCN3C(=O)CCC3=O)CC2)cc1C [Compound 7, 1-[4-(3,4-Dimethylphenyl)piperazin-1-yl]-3-(2,5-dioxopyrrolidin-1-yl)propane] | 450 nM | 282 nM |  |  | 316 nM | 398 nM | 200 nM |  |  | 
O=C1CCC(=O)N1CCCN1CCN(c2ccccc2)CC1 [Compound 8, 1-[4-(Phenylpiperazin)-1-yl]-3-(2,5-dioxopyrrolidin-1-yl)propane] |  | 590 nM | 31.6 nM |  | 251 nM |  |  |  | 7.24 | 
COc1ccccc1N1CCN(CCN2C(=O)CCC2=O)CC1 [Compound 10, 1-[4-(2-Methoxyphenyl)piperazin-1-yl]-2-(2,5-dioxopyrrolidin-1-yl)ethane] | 1600 nM | 2350 nM |  |  | 126 nM | 126 nM | 200 nM |  |  | 
COc1cccc(N2CCN(CCCN3C(=O)CCC3=O)CC2)c1 [Compound 11, 1-[4-(3-Methoxyphenyl)piperazin-1-yl]-3-(2,5-dioxopyrrolidin-1-yl)propane] | > 2500 nM | > 2500 nM |  |  |  |  |  |  |  | 
COc1ccc(N2CCN(CCCN3C(=O)CCC3=O)CC2)cc1 [Compound 12, 1-[4-(4-Methoxyphenyl)piperazin-1yl]-3-(2,5-dioxopyrrolidin-1yl)propane] | > 2500 nM | > 2500 nM |  |  |  |  |  |  |  | 
O=C1CCCC(=O)N1CCCN1CCN(c2ccc(F)cc2)CC1 [Compound 14, 1-[4-(4-Fluorophenyl)piperazin-1-yl]-3-(2,6-dioxopiperidin-1yl)propane] | 67 nM | 192 nM |  |  | 79.4 nM | 3.98 nM | 39.8 nM |  |  | 
O=C1CCCC(=O)N1CCCN1CCN(c2ccc(Cl)cc2)CC1 [Compound 15, 1-[4-(4-Chlorophenyl)piperazin-1-yl]-3-(2,6-dioxopiperidin-1yl)propane] | 520 nM | 201 nM |  |  | 631 nM | 200 nM | 1000 nM |  |  | 
O=C1CCCC(=O)N1CCCN1CCN(c2cccc(C(F)(F)F)c2)CC1 [Compound 16, 1-[4-(3-Trifluoromethylphenyl)piperazin-1-yl]-3-(2,6-dioxopiperidin-1-yl)propane] | 345 nM | 765 nM |  |  | 126 nM | 316 nM |  |  |  | 
O=C1CCCC(=O)N1CCCN1CCN(c2ccccn2)CC1 [Compound 19, 1-[4-(2-Pyridyl)piperazin-1-yl)-3-(2,6-dioxopiperidin-1-yl)propane] | 164 nM | > 2500 nM |  |  | 200 nM | 398 nM |  |  |  | 
O=C1CCCC(=O)N1CCCN1CCN(c2cccc(Cl)c2)CC1 [Compound 20, 1-[4-(3-Chlorophenyl)piperazin-1-yl]-3-(2,6-dioxopiperidin-1-yl)propane] | 22 nM | 113 nM |  |  | 25.1 nM | 31.6 nM |  |  |  | 
O=C1CCCC(=O)N1CCCN1CCN(c2ncccn2)CC1 [Compound 22, 1-[4-(2-Pyrimidyl)piperazin-1-yl]-3-(2,6-dioxopiperidin-1-yl)propane] | > 2500 nM | > 2500 nM |  |  | 100 nM | 398 nM |  |  |  | 
COc1cccc(N2CCN(CCCN3C(=O)CCCC3=O)CC2)c1 [Compound 23, 1-[4-(3-Methoxyphenyl)piperazin-1yl]-3-(2,6-dioxopiperidin-1-yl)propane] | 2170 nM | 940 nM |  |  |  |  |  |  |  | 
COc1ccc(N2CCN(CCCN3C(=O)CCCC3=O)CC2)cc1 [Compound 24, 1-[4-(4-Methoxyphenyl)piperazin-1-yl]-3-(2,6-dioxopiperidin-1-yl)propane] |  |  |  |  |  |  |  |  | > 5.60 | < 5.60
COc1ccccc1N1CCN(CCCCN2C(=O)CCCC2=O)CC1 [Compound 25, 1-[4-(2-Methoxyphenyl)piperazin-1yl]-4-(2,6-dioxopiperidin-1yl)butane] | 1.6 nM | 7.5 nM |  |  |  |  |  |  |  | 
COc1ccccc1N1CCN(CCCN2C(=O)CC(c3ccccc3)C2=O)CC1 (stereo not shown) [Compound 26, 1-[4-(2-Methoxyphenyl)piperazin-1yl]-3-[2,5-dioxo-3-phenyl-pyrolidin-1-yl]propane] | 30 nM | 600 nM |  |  |  |  |  |  |  | 
O=C1CCC(=O)N1CCCN1CCC(c2ccccc2)CC1 [Compound 27, 1-[4-(Phenyl)piperidin-1-yl]-3-[2,5-dioxopyrolidin-1-yl]propane] | 1300 nM | 2000 nM |  |  |  |  |  |  |  | 
